{
  "source": "patent US20170107462A1",
  "about": "“ARRAY OF FABRIC TREATMENT PRODUCTS” (The Procter & Gamble Company, priority 2015, published 2017)",
  "experiment": "Blocker Index (BI), expert graders on malodorous fabric swatches",
  "set-up": "key: 0-3 malodor scale; 0 = clean untreated swatch",
  "excerpt": "Blocker materials suitable for use in consumer products of the present invention are chosen for their ability to decrease malodor, while not interfering with perception of a fragrance. Material selection is done by assigning two indices to a test sample material from two reference scales in order to rank odor strengths. The two reference scales are the Fragrance Fidelity Index (FFI) scale and the Blocker Index (BI) scale. The FFI ranks the ability of the test sample material to impart a perceivable odor which could cause interference when combined with another fragrance and the BI ranks the ability of the test sample material to reduce malodor perception. The two methods for assigning the indices to a test sample on the FFI and the BI reference scales are given below.\nThe first step in the method for assigning a BI to a test sample material on the BI reference scale is to create the BI reference swatches. […] Fabric swatches for this test are white knit polycotton (4 inch×4 inch) swatches from EMC ordered as PC 50/50. The supplier is instructed to strip the swatches first, stripping involves washing twice with a fragrance-free detergent and rinsing three times.\nThe BI scale contains one clean swatch with no malodor applied. […] These solutions are pipetted to the middle of the swatches. […] After drying for 30 minutes in a vented hood, the swatches are wrapped in aluminum foil to prevent odor contamination to the treated swatch. A clean untreated swatch is also included as the lowest anchor point of reference for malodor strength on the BI scale. The BI reference scale swatches should be used within 0.5 to 12 hours and discarded after 12 hours. The swatches are used as scale anchor points when graders evaluate a test sample(s) and are assigned a Blocker Index (BI) as show in Table 12.\nThe perfumer/expert grader is asked to rank order swatches according to a scale between 0 and 3.\nThe reference swatches represent the 0, 1, 2, and 3 BIs on the BI reference scale, Table 12. […]",
  "data": [
    {"smiles": "CC(C)CC(=O)O", "note": "[isovaleric acid]", "values": [
      {"measurement": "BI grade of reference swatch, individual Expert Grader", "setting": "stripped swatch with 2 μL 0.08% isovaleric acid", "result": 2.0},
      {"measurement": "BI grade of reference swatch, individual Expert Grader", "setting": "stripped swatch with 5 μL 0.08% isovaleric acid", "result": 2.0},
      {"measurement": "BI grade of reference swatch, individual Expert Grader", "setting": "stripped swatch with 20 μL 0.08% isovaleric acid", "result": 3.0}
    ]}
  ]
}
